Measurements reported in patent US20250000093A1, “HETEROCYCLIC COMPOUNDS FOR THE CONTROL OF INVERTEBRATE PESTS” (BASF SE, priority 2021, published 2025).

Experiments:
Type in all cases: in vivo
Heliothis virescens = test: B.3 Tobacco budworm, insect diet and eggs in microtiter plates; details: 120 h, egg and larval mortality, 5 days, read-out: mortality in comparison with untreated controls
Method: B.3 Tobacco Budworm (Heliothis virescens)
For evaluating control of tobacco budworm (Heliothis virescens) the test unit consisted of 96-well-microtiter plates containing an insect diet and 15-25 H. virescens eggs.
The compounds were formulated using a solution containing 75% v/v water and 25% v/v DMSO. Different concentrations of formulated compounds were sprayed onto the insect diet at 10 μl, using a custom-built micro atomizer, at two replications.
After application, microtiter plates were incubated at about 28±1° C. and about 80±5% relative humidity for 5 days. Egg and larval mortality was then visually assessed.

Myzus persicae = test: B.2 Green peach aphid, systemic test on artificial diet in microtiter plates; details: for mortality at 2500 ppm: Myzus persicae, 72 h, adult aphids, 3 days, read-out: mortality in comparison with untreated controls; for B.2, 10 ppm / B.2, 25 ppm: comparative experiment, aphid mortality, unit not given
From the text: B.2 Green Peach Aphid (Myzus persicae)
For evaluating control of green peach aphid (Myzus persicae) through systemic means the test unit consisted of 96-well-microtiter plates containing liquid artificial diet under an artificial mem brane.
The compounds were formulated using a solution containing 75% v/v water and 25% v/v DMSO. Different concentrations of formulated compounds were pipetted into the aphid diet, using a custom built pipetter, at two replications.
After application, 5-8 adult aphids were placed on the artificial membrane inside the microtiter plate wells. The aphids were then allowed to suck on the treated aphid diet and incubated at about 23±1° C. and about 50±5% relative humidity for 3 days. Aphid mortality and fecundity was then visually assessed.

Anthonomus grandis = test: B.4 Boll weevil, insect diet and eggs in microtiter plates; details: 120 h, egg and larval mortality, 5 days, read-out: mortality in comparison with untreated controls
Method: B.4 Boll Weevil (Anthonomus grandis)
For evaluating control of boll weevil (Anthonomus grandis) the test unit consisted of 96-well-microtiter plates containing an insect diet and 5-10 A. grandis eggs.
The compounds were formulated using a solution containing 75% v/v water and 25% v/v DMSO. Different concentrations of formulated compounds were sprayed onto the insect diet at 5 μl, using a custom-built micro atomizer, at two replications.
After application, microtiter plates were incubated at about 25±1° C. and about 75±5% relative humidity for 5 days. Egg and larval mortality was then visually assessed.

Dichromothrips corbetti = test: B.6 Orchid thrips, floral-immersion technique; details: for mortality at 300 ppm: Dichromothrips corbetti, adult thrips, 72 hours after treatment, read-out: mortality in comparison with untreated controls; for B.6, 100 ppm: comparative experiment, thrips mortality, unit not given
Method: B.6 Orchid Thrips (Dichromothrips corbetti)
Dichromothrips corbetti adults used for bioassay were obtained from a colony maintained continuously under laboratory conditions. For testing purposes, the test compound is diluted in a 1:1 mixture of acetone:water (vol:vol), plus Kinetic HV at a rate of 0.01% v/v.
Thrips potency of each compound was evaluated by using a floral-immersion technique. All petals of individual, intact orchid flowers were dipped into treatment solution and allowed to dry in Petri dishes. Treated petals were placed into individual re-sealable plastic along with about 20 adult thrips. All test arenas were held under continuous light and a temperature of about 28° C. for duration of the assay. After 3 days, the numbers of live thrips were counted on each petal. The percent mortality was recorded 72 hours after treatment.

Plutella xylostella = test: B.1 Diamond back moth, cabbage leaf dip test; details: foliar, 3rd instar larvae, 72 hours after treatment, read-out: mortality in comparison with untreated controls
Method: B.1 Diamond Back Moth (Plutella xylostella)
The active compound was dissolved at the desired concentration in a mixture of 1:1 (vol:vol) distilled water:acetone. Surfactant (Kinetic HV) was added at a rate of 0.01% (vol/vol). The test solution was prepared on the day of use.
Leaves of cabbage were dipped in test solution and air-dried. Treated leaves were placed in petri dishes lined with moist filter paper and inoculated with ten 3rd instar larvae. Mortality was recorded 72 hours after treatment. Feeding damages were also recorded using a scale of 0-100%.

Spodoptera eridania = test: B.5 Southern armyworm, 2nd instar larvae, sprayed lima bean plants; details: 96 h, 4 days after treatment, read-out: mortality in comparison with untreated controls
Method: B.5. Southern Armyworm (Spodoptera eridania), 2nd Instar Larvae
The active compounds were formulated by a Tecan liquid handler in 100% cyclohexanone as a 10,000 ppm solution supplied in tubes. The 10,000 ppm solution was serially diluted in 100% cyclohexanone to make interim solutions. These served as stock solutions for which final dilutions were made by the Tecan in 50% acetone:50% water (v/v) into 10 or 20 ml glass vials. A nonionic surfactant (Kinetic®) was included in the solution at a volume of 0.01% (v/v). The vials were then inserted into an automated electrostatic sprayer equipped with an atomizing nozzle for application to plants/insects. Lima bean plants (variety Sieva) were grown 2 plants to a pot and selected for treatment at the 1st true leaf stage. Test solutions were sprayed onto the foliage by an automated electrostatic plant sprayer equipped with an atomizing spray nozzle. The plants were dried in the sprayer fume hood and then removed from the sprayer. Each pot was placed into perforated plastic bags with a zip closure. Ten to 11 armyworm larvae were placed into the bag and the bags zipped closed. Test plants were maintained in a growth room at about 25° C. and about 20-40% relative humidity for 4 days, avoiding direct exposure to fluorescent light (14:10 light:dark photoperiod) to prevent trapping of heat inside the bags. Mortality and reduced feeding were assessed 4 days after treatment, compared to untreated control plants.

Aedes aegypti = test: B.7 Yellow fever mosquito, larvae in microtiter plates; details: comparative experiment, larval mortality after 2 days, unit not given
Method: B.7 Yellow Fever Mosquito (Aedes aegypti)
For evaluating control of yellow fever mosquito (Aedes aegypti) the test unit consisted of 96-well-microtiter plates containing 200 μl of tap water per well and 5-15 freshly hatched A. aegypti larvae.
The active compounds were formulated using a solution containing 75% (v/v) water and 25% (v/v) DMSO. Different concentrations of formulated compounds or mixtures were sprayed onto the insect diet at 2.5 μl, using a custom-built micro atomizer, at two replications.
After application, microtiter plates were incubated at 28±1° C., 80±5% RH for 2 days. Larval mortality was then visually assessed.

| SMILES | mortality at 2500 ppm (Heliothis virescens) | mortality at 2500 ppm (Myzus persicae) | mortality at 2500 ppm (Anthonomus grandis) | mortality at 300 ppm (Dichromothrips corbetti) | mortality at 300 ppm (Plutella xylostella) | mortality at 300 ppm (Spodoptera eridania) | B.2, 10 ppm (Myzus persicae) | B.6, 100 ppm (Dichromothrips corbetti) | B.2, 25 ppm (Myzus persicae) | B.7, 10 ppm (Aedes aegypti) |
| --- | --- | --- | --- | --- | --- | --- | --- | --- | --- | --- |
| CC(NC(=O)c1cc(Br)cc(C(F)(F)F)c1)c1nccnc1-n1ncn(C)c1=O (stereo not shown) [I-1, 3-bromo-N-[1-[3-(4-methyl-5-oxo-1,2,4-triazol-1-yl)pyrazin-2-yl]ethyl]-5-(trifluoromethyl)benzamide] | ≥ 75% | ≥ 75% | ≥ 75% | ≥ 75% | – | – | – | – | – | – |
| CC(NC(=O)c1cc(Br)cc(C(F)(F)F)c1)c1nccnc1-n1ncn(CC(F)(F)F)c1=O (stereo not shown) [I-2, 3-bromo-N-[1-[3-[5-oxo-4-(2,2,2-trifluoroethyl)-1,2,4-triazol-1-yl]pyrazin-2-yl]ethyl]-5-(trifluoromethyl)benzamide] | ≥ 75% | ≥ 75% | ≥ 75% | ≥ 75% | – | – | – | – | – | – |
| COc1ccc(Cn2cnn(-c3nccnc3C(C)NC(=O)c3cc(Br)cc(S(C)(=O)=O)c3)c2=O)cc1 (stereo not shown) [I-3, 3-bromo-N-[1-[3-[4-[(4-methoxyphenyl)methyl]-5-oxo-1,2,4-triazol-1-yl]pyrazin-2-yl]ethyl]-5-methylsulfonyl-benzamide] | – | ≥ 75% | – | – | – | – | – | – | – | – |
| CC(NC(=O)c1cc(Br)cc(S(C)(=O)=O)c1)c1nccnc1-n1ncn(CC2CC2)c1=O (stereo not shown) [I-5, 3-bromo-N-[1-[3-[4-(cyclopropylmethyl)-5-oxo-1,2,4-triazol-1-yl]pyrazin-2-yl]ethyl]-5-methylsulfonyl-benzamide] | – | ≥ 75% | ≥ 75% | – | ≥ 75% | ≥ 75% | – | – | – | – |
| CC(c1nccnc1-n1ncn(C)c1=O)N(C)C(=O)c1cc(Br)cc(S(C)(=O)=O)c1 (stereo not shown) [I-8, 3-bromo-N-methyl-N-[1-[3-(4-methyl-5-oxo-1,2,4-triazol-1-yl)pyrazin-2-yl]ethyl]-5-methylsulfonyl-benzamide] | – | ≥ 75% | – | – | – | – | – | – | – | – |
| CC(NC(=O)c1cc(C(F)(F)F)cc(C(F)(F)F)c1)c1nccnc1-n1ncn(C)c1=O (stereo not shown) [I-10] | ≥ 75% | ≥ 75% | ≥ 75% | ≥ 75% | ≥ 75% | ≥ 75% | 100 | 100 | – | – |
| CC(c1nccnc1-n1ncn(CC(F)(F)F)c1=O)N(CC1CC1)C(=O)c1cc(C(F)(F)F)cc(C(F)(F)F)c1 (stereo not shown) [I-15] | ≥ 75% | ≥ 75% | ≥ 75% | ≥ 75% | ≥ 75% | ≥ 75% | – | – | 100 | 100 |
| CC(NC(=O)c1cc(C(F)(F)F)cc(C(F)(F)F)c1)c1nccnc1-n1cncn1 (stereo not shown) [WO2021/037614 P46, reference compound] | – | – | – | – | – | – | 25 | 0 | – | – |
| CC(c1nccnc1-n1cncn1)N(CC1CC1)C(=O)c1cc(C(F)(F)F)cc(C(F)(F)F)c1 (stereo not shown) [WO2021/037614 P48, reference compound] | – | – | – | – | – | – | – | – | 50 | 0 |
